Reference: ChEMBL document CHEMBL6127087 (Eur J Med Chem, 2024)
Active and inactive are the calls of the source. The calls are words filed in the database; no cut-off is given here.

How the values were obtained:
P2Y purinoceptor 6 = P2Y purinoceptor 6 (Homo sapiens, UniProt Q15077); assay: Antagonist activity at human P2Y6R expressed in CHO cells assessed as inhibition of UDP sodium salt-induced Ca2+ level by FLIPR calcium 6 assay; type: functional, cell-based
[1] = Cmax in male Sprague-Dawley rat at 10 mg/kg, iv measured after 24 hrs by LC-MS/MS analysis; type: ADME, organism-based; settings: in vivo, iv, 10 mg/kg, 24 h
[2] = AUC (0 to 24 hrs) in male Sprague-Dawley rat at 20 mg/kg, po measured after 24 hrs by LC-MS/MS analysis; type: ADME, organism-based; settings: in vivo, po, 20 mg/kg, 24 h
[3] = Oral bioavailability in male Sprague-Dawley rat at 20 mg/kg measured after 24 hrs by LC-MS/MS analysis; type: ADME, organism-based; settings: in vivo, po, 20 mg/kg, 24 h
[4] = Cmax in male Sprague-Dawley rat at 20 mg/kg, po measured after 24 hrs by LC-MS/MS analysis; type: ADME, organism-based; settings: in vivo, po, 20 mg/kg, 24 h
[5] = Clearance in male Sprague-Dawley rat at 10 mg/kg, iv measured after 24 hrs by LC-MS/MS analysis; type: ADME, organism-based; settings: in vivo
[6] = Clearance in male Sprague-Dawley rat at 20 mg/kg, po measured after 24 hrs by LC-MS/MS analysis; type: ADME, organism-based; settings: in vivo
[7] = Tmax in male Sprague-Dawley rat at 10 mg/kg, iv measured after 24 hrs by LC-MS/MS analysis; type: ADME, organism-based; settings: in vivo, iv, 10 mg/kg, 24 h
[8] = Half-life in male Sprague-Dawley rat at 10 mg/kg, iv measured after 24 hrs by LC-MS/MS analysis; type: ADME, organism-based; settings: in vivo, iv, 10 mg/kg, 24 h
[9] = AUC (0 to 24 hrs) in male Sprague-Dawley rat at 10 mg/kg, iv measured after 24 hrs by LC-MS/MS analysis; type: ADME, organism-based; settings: in vivo
[10] = Tmax in male Sprague-Dawley rat at 20 mg/kg, po measured after 24 hrs by LC-MS/MS analysis; type: ADME, organism-based; settings: in vivo, po, 20 mg/kg, 24 h
[11] = Half-life in male Sprague-Dawley rat at 20 mg/kg, po measured after 24 hrs by LC-MS/MS analysis; type: ADME, organism-based; settings: in vivo, po, 20 mg/kg, 24 h
Mus musculus [12] = assay: Anti-inflammatory activity in LPS-induced male C57BL/6 mouse model of acute […] injury assessed as reduction in infiltration of immune cells by measuring decrease in lymphocytes count at 2 mg/kg, IG preadministered with compound for 7 days followed by LPS administration and measured after 24 hrs; type: functional, organism-based; settings: time 8.0 day
Mus musculus [13] = assay: Anti-inflammatory activity in LPS-induced male C57BL/6 mouse model of acute […] injury assessed as reduction in TNF-alpha level in BALF at 2 mg/kg, IG preadministered with compound for 7 days followed by LPS administration and measured after 24 hrs by ELISA; type: functional, organism-based; settings: time 8.0 day
Mus musculus [14] = assay: Anti-inflammatory activity in LPS-induced male C57BL/6 mouse model of acute […] injury assessed as reduction in infiltration of immune cells by measuring decrease in monocytes count at 2 mg/kg, IG preadministered with compound for 7 days followed by LPS administration and measured after 24 hrs; type: functional, organism-based; settings: time 8.0 day
Mus musculus [15] = assay: Anti-inflammatory activity in LPS-induced male C57BL/6 mouse model of acute […] injury assessed as reduction in IL-6 level in BALF at 2 mg/kg, IG preadministered with compound for 7 days followed by LPS administration and measured after 24 hrs by ELISA; type: functional, organism-based; settings: time 8.0 day
Mus musculus [16] = assay: Anti-inflammatory activity in LPS-induced male C57BL/6 mouse model of acute […] injury assessed as reduction in infiltration of immune cells by measuring decrease in WBC count at 2 mg/kg, IG preadministered with compound for 7 days followed by LPS administration and measured after 24 hrs; type: functional, organism-based; settings: time 8.0 day
Mus musculus [17] = assay: Anti-inflammatory activity in LPS-induced male C57BL/6 mouse model of acute […] injury assessed as reduction in inflammatory infiltration in lung at 2 mg/kg, IG preadministered with compound for 7 days followed by LPS administration and measured after 24 hrs by H and E staining based histopathological analysis; type: functional, organism-based; settings: time 8.0 day
Mus musculus [18] = assay: Anti-inflammatory activity in LPS-induced male C57BL/6 mouse model of acute […] injury assessed as reduction in infiltration of immune cells by measuring decrease in neutrophil count at 2 mg/kg, IG preadministered with compound for 7 days followed by LPS administration and measured after 24 hrs; type: functional, organism-based; settings: time 8.0 day
Mus musculus [19] = assay: Anti-inflammatory activity in LPS-induced male C57BL/6 mouse model of acute […] injury assessed as reduction in interstitial edema in lung at 2 mg/kg, IG preadministered with compound for 7 days followed by LPS administration and measured after 24 hrs by H and E staining based histopathological analysis; type: functional, organism-based; settings: time 8.0 day
Mus musculus [20] = assay: Anti-inflammatory activity in LPS-induced male C57BL/6 mouse model of acute […] injury assessed as reduction in tissue destruction in lung at 2 mg/kg, IG preadministered with compound for 7 days followed by LPS administration and measured after 24 hrs by H and E staining based histopathological analysis; type: functional, organism-based; settings: time 8.0 day
Mus musculus [21] = assay: Anti-inflammatory activity in LPS-induced male C57BL/6 mouse model of acute […] injury assessed as reduction in IL-1beta level in BALF at 2 mg/kg, IG preadministered with compound for 7 days followed by LPS administration and measured after 24 hrs by ELISA; type: functional, organism-based; settings: time 8.0 day
Mus musculus [22] = assay: Anti-inflammatory activity in LPS-induced male C57BL/6 mouse model of acute […] injury assessed as intact appearance of alveolar structure in lung at 2 mg/kg, IG preadministered with compound for 7 days followed by LPS administration and measured after 24 hrs by H and E staining based histopathological analysis; type: functional, organism-based; settings: time 8.0 day
Mus musculus [23] = assay: Anti-inflammatory activity in LPS-induced male C57BL/6 mouse model of acute […] injury assessed as absence of lesion in lung parenchyma at 2 mg/kg, IG preadministered with compound for 7 days followed by LPS administration and measured after 24 hrs by H and E staining based histopathological analysis; type: functional, organism-based; settings: time 8.0 day
Mus musculus [24] = assay: Anti-inflammatory activity in LPS-induced male C57BL/6 mouse model of acute […] injury assessed as reduction in alveolar septa thickening in lung at 2 mg/kg, IG preadministered with compound for 7 days followed by LPS administration and measured after 24 hrs by H and E staining based histopathological analysis; type: functional, organism-based; settings: time 8.0 day
Mus musculus [25] = assay: Anti-inflammatory activity in LPS-induced male C57BL/6 mouse model of acute […] injury assessed as reduction in hyperemia of pulmonary alveolar septa in lung at 2 mg/kg, IG preadministered with compound for 7 days followed by LPS administration and measured after 24 hrs by H and E staining based histopathological analysis; type: functional, organism-based; settings: time 8.0 day
P2Y purinoceptor 12 = P2Y purinoceptor 12 (Homo sapiens, UniProt Q9H244); assay: Antagonist activity at human P2Y12R stably expressed in HEK293 cells assessed as inhibition of MeSADP-induced cAMP accumulation preincubated with compound for 30 mins followed by MeSADP addition by cAMP-GloTM assay; type: functional, cell-based
P2Y purinoceptor 4 = P2Y purinoceptor 4 (Homo sapiens, UniProt P51582); assay: Antagonist activity at human P2Y4R stably expressed in HEK293 cells assessed as inhibition of UTP-induced IP3 accumulation preincubated with compound for 30 mins followed by UTP addition by ELISA
Chain of P2Y purinoceptor 4 (P51582 whole entry): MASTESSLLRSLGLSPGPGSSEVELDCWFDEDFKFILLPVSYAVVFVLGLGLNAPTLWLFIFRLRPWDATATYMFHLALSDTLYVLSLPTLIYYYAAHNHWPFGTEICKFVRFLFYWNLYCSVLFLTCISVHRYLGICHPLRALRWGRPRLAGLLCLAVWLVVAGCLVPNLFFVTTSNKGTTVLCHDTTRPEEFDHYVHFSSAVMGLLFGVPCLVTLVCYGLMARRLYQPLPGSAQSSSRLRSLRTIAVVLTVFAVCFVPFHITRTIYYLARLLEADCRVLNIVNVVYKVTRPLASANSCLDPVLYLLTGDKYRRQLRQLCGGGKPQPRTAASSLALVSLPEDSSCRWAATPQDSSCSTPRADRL

Chain of P2Y purinoceptor 6 (Q15077 whole entry): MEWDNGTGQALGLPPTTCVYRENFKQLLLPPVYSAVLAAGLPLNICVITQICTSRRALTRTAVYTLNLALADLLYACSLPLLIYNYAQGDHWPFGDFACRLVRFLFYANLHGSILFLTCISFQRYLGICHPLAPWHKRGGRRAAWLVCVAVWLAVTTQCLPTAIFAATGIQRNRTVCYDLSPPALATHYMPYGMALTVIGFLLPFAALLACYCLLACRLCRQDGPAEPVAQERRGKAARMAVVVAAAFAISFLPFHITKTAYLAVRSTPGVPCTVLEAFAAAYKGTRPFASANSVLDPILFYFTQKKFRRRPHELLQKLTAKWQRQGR
Chain of P2Y purinoceptor 12 (Q9H244 whole entry): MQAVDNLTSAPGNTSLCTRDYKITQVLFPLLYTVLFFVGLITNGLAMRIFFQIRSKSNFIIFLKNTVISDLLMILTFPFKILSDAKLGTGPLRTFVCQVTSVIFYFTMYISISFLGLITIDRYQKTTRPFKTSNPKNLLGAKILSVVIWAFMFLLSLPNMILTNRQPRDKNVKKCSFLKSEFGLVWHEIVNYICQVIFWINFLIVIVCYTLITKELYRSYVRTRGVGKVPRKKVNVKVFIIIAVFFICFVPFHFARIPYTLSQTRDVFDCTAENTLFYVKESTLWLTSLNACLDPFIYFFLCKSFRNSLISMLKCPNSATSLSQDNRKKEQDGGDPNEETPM

Row | Compound | IC50 (P2Y purinoceptor 6) [nM] | other results
1 | O=C(O)CCC(=O)N1N=C(c2ccco2)CC1c1cc2ccc(F)cc2nc1Cl (stereo unspecified) | 210 | –
2 | Cc1ccc2cc(C3CC(c4ccc(-c5ccccc5)cc4)=NN3C(=O)CCC(=O)O)c(Cl)nc2c1 (stereo unspecified) | 168 | Cmax [1]: 864 ng/mL; AUC [2]: 2356 ng·h/mL; F [3]: 16%; Cmax [4]: 1211 ng/mL; clearance [5]: 13.5 mL/min/kg; CL/F [6]: 20.1 mL/min/kg; Tmax [7]: 9 min; t1/2 [8]: 6 min; AUC [9]: 1854 ng·h/mL; Tmax [10]: 14 min; t1/2 [11]: 12 min
3 | Cc1ccc2cc(C3CC(c4cccs4)=NN3C(=O)CCC(=O)O)c(Cl)nc2c1 (stereo unspecified) | 324 | –
4 | C[C@@H]1C[C@H]2[C@@H]3CCC4=CC(=O)C=C[C@]4(C)[C@@]3(F)[C@@H](O)C[C@]2(C)[C@@]1(O)C(=O)CO | – | Activity (Mus musculus [12]): Active; Activity (Mus musculus [13]): Active; Activity (Mus musculus [14]): Active; Activity (Mus musculus [15]): Active; Activity (Mus musculus [16]): Active; Activity (Mus musculus [17]): Active; Activity (Mus musculus [18]): Active; Activity (Mus musculus [19]): Active; Activity (Mus musculus [20]): Active; Activity (Mus musculus [21]): Active; Activity (Mus musculus [22]): Active; Activity (Mus musculus [23]): Active; Activity (Mus musculus [24]): Active; Activity (Mus musculus [25]): Active
5 | Cc1ccc2cc(C3CC(c4ccc5ccccc5c4)=NN3C(=O)CCC(=O)O)c(Cl)nc2c1 (stereo unspecified) | > 500 | –
6 | O=C(O)CCC(=O)N1N=C(c2ccccc2)CC1c1cc2ccc(F)cc2nc1Cl (stereo unspecified) | 187 | –
7 | COc1cccc(C2=NN(C(=O)CCC(=O)O)C(c3cc4ccc(C)cc4nc3Cl)C2)c1 (stereo unspecified) | 77.5 | –
8 | Cc1cccc2cc(C3CC(c4ccco4)=NN3C(=O)CCC(=O)O)c(Cl)nc12 (stereo unspecified) | 34.6 | –
9 | O=C(O)CCC(=O)N1N=C(c2ccc[nH]2)CC1c1cc2ccc(F)cc2nc1Cl (stereo unspecified) | 421 | –
10 | O=C(O)CCC(=O)N1N=C(c2ccccc2)CC1c1cc2ccccc2nc1Cl (stereo unspecified) | 274 | –
11 | O=C(O)CCC(=O)N1N=C(c2ccco2)CC1c1cc2ccccc2nc1Cl (stereo unspecified) | 186 | –
12 | Cc1ccc2nc(Cl)c(C3CC(c4ccccc4)=NN3C(=O)CCC(=O)O)cc2c1 (stereo unspecified) | 106 | –
13 | Cc1ccc2cc(C3CC(c4ccc[nH]4)=NN3C(=O)CCC(=O)O)c(Cl)nc2c1 (stereo unspecified) | 29.6 | –
14 | CCCSc1nc(N[C@@H]2C[C@H]2c2ccc(F)c(F)c2)c2nnn([C@@H]3C[C@H](OCCO)[C@@H](O)[C@H]3O)c2n1 [TICAGRELOR] | – | IC50 (P2Y purinoceptor 12): 1220 nM
15 | Cc1ccc2cc(C3CC(c4c[nH]c5ccccc45)=NN3C(=O)CCC(=O)O)c(Cl)nc2c1 (stereo unspecified) | 148 | –
16 | Cc1ccc2cc(C3CC(c4ccco4)=NN3C(=O)C=CC(=O)O)c(Cl)nc2c1 (stereo unspecified) | 291 | –
17 | COc1ccc(C2=NN(C(=O)CCC(=O)O)C(c3cc4ccc(C)cc4nc3Cl)C2)cc1 (stereo unspecified) | 106 | –
18 | Cc1ccc2cc(C3CC(c4ccco4)=NN3C(=O)CCC(=O)O)c(Cl)nc2c1 (stereo unspecified) | 26.5 | –
19 | O=C(C1CC1)N1CCc2cc(Br)c(S(=O)(=O)Nc3ccc(Cl)c(C(F)(F)F)c3)cc21 | – | IC50 (P2Y purinoceptor 4): 12500 nM

Row | Compound | IC50 (P2Y purinoceptor 6) [nM] | other results
20 | Cc1ccc2cc(C3CC(c4ccccc4)=NN3C(=O)CCC(=O)O)c(Cl)nc2c1 (stereo unspecified) | 54.6 | –
21 | Cc1ccc2cc(C3CC(c4ccc(C(C)(C)C)cc4)=NN3C(=O)CCC(=O)O)c(Cl)nc2c1 (stereo unspecified) | 69.4 | –
22 | O=C(O)CCC(=O)N1N=C(c2ccccc2)CC1c1cnc2ccccc2c1 (stereo unspecified) | 39.8 | –
23 | Cc1cccc2cc(C3CC(c4ccccc4)=NN3C(=O)CCC(=O)O)c(Cl)nc12 (stereo unspecified) | 41.5 | –
24 | Cc1ccc2nc(Cl)c(C3CC(c4ccco4)=NN3C(=O)CCC(=O)O)cc2c1 (stereo unspecified) | 52.8 | –
25 | O=C(O)CCC(=O)N1N=C(c2ccco2)CC1c1cnc2ccccc2c1 (stereo unspecified) | 26.7 | –
26 | Cc1ccc2cc(C3CC(c4ccco4)=NN3C(=O)CCCC(=O)O)c(Cl)nc2c1 (stereo unspecified) | > 500 | –
27 | Cc1ccc2cc(C3CC(c4cccnc4)=NN3C(=O)CCC(=O)O)c(Cl)nc2c1 (stereo unspecified) | 279 | –
28 | Cc1ccc2cc(C3CC(c4ccccc4F)=NN3C(=O)CCC(=O)O)c(Cl)nc2c1 (stereo unspecified) | > 500 | –
29 | O=C(O)CCC(=O)N1N=C(c2ccc[nH]2)CC1c1cc2ccccc2nc1Cl (stereo unspecified) | 249 | –
30 | Cc1cccc2cc(C3CC(c4ccc[nH]4)=NN3C(=O)CCC(=O)O)c(Cl)nc12 (stereo unspecified) | 53.7 | –
31 | Cc1ccc2cc(C3CC(c4ccc(O)cc4)=NN3C(=O)CCC(=O)O)c(Cl)nc2c1 (stereo unspecified) | > 500 | –
32 | Cc1ccc2nc(Cl)c(C3CC(c4ccc[nH]4)=NN3C(=O)CCC(=O)O)cc2c1 (stereo unspecified) | 66.8 | –
33 | Cc1ccc2cc(C3CC(c4cccc(C(F)(F)F)c4)=NN3C(=O)CCC(=O)O)c(Cl)nc2c1 (stereo unspecified) | > 500 | –
34 | O=C(O)CCCC(=O)N1N=C(c2ccc[nH]2)CC1c1cnc2ccccc2c1 (stereo unspecified) | 200 | –
35 | Cc1cccc(C2=NN(C(=O)CCC(=O)O)C(c3cc4ccc(C)cc4nc3Cl)C2)c1 (stereo unspecified) | 125 | –
36 | Cc1ccc(C2=NN(C(=O)CCC(=O)O)C(c3cc4ccc(C)cc4nc3Cl)C2)cc1 (stereo unspecified) | 84.6 | –
37 | O=C(O)/C=C\C(=O)N1N=C(c2ccc[nH]2)CC1c1cnc2ccccc2c1 (stereo unspecified) | 386 | –
